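Five concentrations, 48 hours, 96-well plates. Here, GI50 denotes the concentration required for 50% inhibition of growth.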 Activity calls are given as the source filed them. Rule as the data show it: active = GI50 up to about 1.1 µM and inactive = higher.
Legend:
Assay in all cases: NCI anticancer screen, dose series, 48 h
OVCAR-8 = system: OVCAR-8
A498 = system: A498
EKVX = system: EKVX
SN12C = system: SN12C
SF-268 = system: SF-268
BT-549 = system: BT-549
UACC-257 = system: UACC-257
MDA-N = system: MDA-N
NCI-H460 = system: NCI-H460
HT-29 = system: HT-29
SF-539 = system: SF-539
SW-620 = system: SW-620
ACHN = system: ACHN
SK-OV-3 = system: SK-OV-3
OVCAR-3 = system: OVCAR-3
SNB-75 = system: SNB-75
SK-MEL-2 = system: SK-MEL-2

| Structure (SMILES) | GI50 (OVCAR-8) | GI50 (A498) | GI50 (EKVX) | GI50 (SN12C) | GI50 (SF-268) | GI50 (BT-549) | GI50 (UACC-257) | GI50 (MDA-N) | GI50 (NCI-H460) | GI50 (HT-29) | GI50 (SF-539) | GI50 (SW-620) | GI50 (ACHN) | GI50 (SK-OV-3) | GI50 (OVCAR-3) | GI50 (SNB-75) | GI50 (SK-MEL-2) |
| --- | --- | --- | --- | --- | --- | --- | --- | --- | --- | --- | --- | --- | --- | --- | --- | --- | --- |
| CCN(CC)c1ccc(C2NC(=O)c3ccccc3N2)cc1 (configuration not stated) | 3.62 µM (inactive) | 4.95 µM (inactive) | 5.24 µM (inactive) | 9.98 µM (inactive) | 8.57 µM (inactive) | > 100 µM (inactive) | > 100 µM (inactive) | 0.847 µM (active) | 1.21 µM (inactive) | 2.31 µM (inactive) | 2.71 µM (inactive) | 1.5 µM (inactive) | 7.03 µM (inactive) | 3.74 µM (inactive) | 2.82 µM (inactive) | – | – |
| O=c1[nH]nc(-c2ccccc2)n1/N=C/c1ccncc1 | > 100 µM (inactive) | 24.9 µM (inactive) | > 100 µM (inactive) | > 100 µM (inactive) | > 100 µM (inactive) | 32.6 µM (inactive) | > 100 µM (inactive) | > 100 µM (inactive) | > 100 µM (inactive) | > 100 µM (inactive) | 61.8 µM (inactive) | > 100 µM (inactive) | > 100 µM (inactive) | – | > 100 µM (inactive) | 81.3 µM (inactive) | – |
| CC(C)(C)OC(=O)NC(CCCCNC(=O)OCc1ccccc1)C(=O)NC(CCCCNC(=O)OCc1ccccc1)C(=O)ON1C(=O)CCC1=O (configuration not stated) | > 100 µM (inactive) | – | > 100 µM (inactive) | > 100 µM (inactive) | – | > 100 µM (inactive) | > 100 µM (inactive) | > 100 µM (inactive) | – | > 100 µM (inactive) | – | > 100 µM (inactive) | – | – | – | > 100 µM (inactive) | > 100 µM (inactive) |
| CNC(=O)Oc1ccc(C(=S)Nc2ccc(Br)cc2)cc1 | 7.98 µM (inactive) | 18.4 µM (inactive) | 8.05 µM (inactive) | – | 9.55 µM (inactive) | 17.1 µM (inactive) | 28.4 µM (inactive) | 22.2 µM (inactive) | – | 19.9 µM (inactive) | 18.4 µM (inactive) | 23.1 µM (inactive) | 24.4 µM (inactive) | 44 µM (inactive) | 19.7 µM (inactive) | – | 17.7 µM (inactive) |
| O=C(/C=C1/Nc2ccc([N+](=O)[O-])cc2N/C1=C/C(=O)c1ccc(Cl)cc1)c1ccc(Cl)cc1 | 54.8 µM (inactive) | 10.1 µM (inactive) | > 100 µM (inactive) | 17.7 µM (inactive) | 60.5 µM (inactive) | > 100 µM (inactive) | > 100 µM (inactive) | > 100 µM (inactive) | 42.9 µM (inactive) | > 100 µM (inactive) | > 100 µM (inactive) | – | > 100 µM (inactive) | – | 80.2 µM (inactive) | > 100 µM (inactive) | 13.6 µM (inactive) |
| CSc1nc(Cl)c2c(n1)Sc1nc3ccccc3n1N=C2 | 19.1 µM (inactive) | > 100 µM (inactive) | – | 37.8 µM (inactive) | 31 µM (inactive) | 18.6 µM (inactive) | 35.8 µM (inactive) | 22 µM (inactive) | 56 µM (inactive) | 23.2 µM (inactive) | – | 13.2 µM (inactive) | 23.7 µM (inactive) | > 100 µM (inactive) | 25.5 µM (inactive) | 25.9 µM (inactive) | 50.4 µM (inactive) |
| CCN(CC)C(=O)Cn1c(C)cc2ccccc21 | > 100 µM (inactive) | – | > 100 µM (inactive) | > 100 µM (inactive) | > 100 µM (inactive) | > 100 µM (inactive) | > 100 µM (inactive) | > 100 µM (inactive) | > 100 µM (inactive) | > 100 µM (inactive) | > 100 µM (inactive) | > 100 µM (inactive) | > 100 µM (inactive) | > 100 µM (inactive) | > 100 µM (inactive) | > 100 µM (inactive) | > 100 µM (inactive) |
| O=C1C=CC2(C=C1)CCC(=O)O2 | 16.2 µM (inactive) | 36.3 µM (inactive) | 17.9 µM (inactive) | 16.1 µM (inactive) | 12.1 µM (inactive) | 18.5 µM (inactive) | 18.7 µM (inactive) | 27.9 µM (inactive) | 14.3 µM (inactive) | 22.9 µM (inactive) | 12.2 µM (inactive) | 11.6 µM (inactive) | 15.2 µM (inactive) | – | 13.2 µM (inactive) | 19 µM (inactive) | 16.1 µM (inactive) |
| Cc1c(O)c(=O)ccn1CCc1c[nH]c2ccccc12 | 8.39 µM (inactive) | – | 6.31 µM (inactive) | – | 2.44 µM (inactive) | 20.7 µM (inactive) | 3.92 µM (inactive) | 23 µM (inactive) | 4.11 µM (inactive) | 3.75 µM (inactive) | 19.7 µM (inactive) | 7.23 µM (inactive) | 3.08 µM (inactive) | 12.5 µM (inactive) | – | – | – |
| Cc1nnc2n1-c1ccccc1C(=S)N1CSCC21 (configuration not stated) | > 100 µM (inactive) | > 100 µM (inactive) | > 100 µM (inactive) | > 100 µM (inactive) | > 100 µM (inactive) | > 100 µM (inactive) | > 100 µM (inactive) | > 100 µM (inactive) | > 100 µM (inactive) | > 100 µM (inactive) | – | > 100 µM (inactive) | > 100 µM (inactive) | > 100 µM (inactive) | > 100 µM (inactive) | > 100 µM (inactive) | > 100 µM (inactive) |
| O=c1c2nc[nH]c2n(-c2ccccc2)c(=S)n1-c1ccccc1 | > 100 µM (inactive) | > 100 µM (inactive) | > 100 µM (inactive) | > 100 µM (inactive) | > 100 µM (inactive) | > 100 µM (inactive) | > 100 µM (inactive) | – | > 100 µM (inactive) | > 100 µM (inactive) | > 100 µM (inactive) | > 100 µM (inactive) | > 100 µM (inactive) | > 100 µM (inactive) | > 100 µM (inactive) | > 100 µM (inactive) | > 100 µM (inactive) |
| CCOC(=O)C(NC(=O)Nc1ccc(Cl)c(Cl)c1)C(F)(F)F (configuration not stated) | > 100 µM (inactive) | > 100 µM (inactive) | 77.1 µM (inactive) | > 100 µM (inactive) | > 100 µM (inactive) | 45.2 µM (inactive) | > 100 µM (inactive) | > 100 µM (inactive) | – | > 100 µM (inactive) | > 100 µM (inactive) | > 100 µM (inactive) | 57.4 µM (inactive) | > 100 µM (inactive) | – | > 100 µM (inactive) | 63 µM (inactive) |
| N#CC(c1cc(Cl)ncn1)c1nc2cc(C(F)(F)F)ccc2s1 (configuration not stated) | 3.83 µM (inactive) | 5.85 µM (inactive) | 14.5 µM (inactive) | 13.7 µM (inactive) | 3.66 µM (inactive) | 3.09 µM (inactive) | 4.24 µM (inactive) | 3.42 µM (inactive) | 4.78 µM (inactive) | 3.39 µM (inactive) | 4.63 µM (inactive) | 5.37 µM (inactive) | 13.6 µM (inactive) | 17.5 µM (inactive) | 3.32 µM (inactive) | 5.79 µM (inactive) | – |
| Cc1cccc(NS(=O)(=O)c2ccc3c(c2)OCCOCCOCCOCCO3)c1 | > 100 µM (inactive) | > 100 µM (inactive) | > 100 µM (inactive) | > 100 µM (inactive) | > 100 µM (inactive) | > 100 µM (inactive) | > 100 µM (inactive) | > 100 µM (inactive) | > 100 µM (inactive) | > 100 µM (inactive) | > 100 µM (inactive) | > 100 µM (inactive) | > 100 µM (inactive) | > 100 µM (inactive) | – | 51.5 µM (inactive) | – |
| O=C(O)C/N=C(\C(=N\CC(=O)O)c1ccccc1)c1ccccc1 | > 100 µM (inactive) | > 100 µM (inactive) | > 100 µM (inactive) | > 100 µM (inactive) | > 100 µM (inactive) | > 100 µM (inactive) | > 100 µM (inactive) | > 100 µM (inactive) | > 100 µM (inactive) | – | – | > 100 µM (inactive) | > 100 µM (inactive) | > 100 µM (inactive) | > 100 µM (inactive) | > 100 µM (inactive) | > 100 µM (inactive) |
| C/C(=N\C1CCCCC1)c1ccccc1O | > 100 µM (inactive) | > 100 µM (inactive) | > 100 µM (inactive) | > 100 µM (inactive) | > 100 µM (inactive) | > 100 µM (inactive) | > 100 µM (inactive) | > 100 µM (inactive) | > 100 µM (inactive) | > 100 µM (inactive) | > 100 µM (inactive) | > 100 µM (inactive) | > 100 µM (inactive) | > 100 µM (inactive) | – | 57.5 µM (inactive) | > 100 µM (inactive) |
| Cc1ccc(S(=O)(=O)Nn2c(S)c(C#N)c(-c3ccc([N+](=O)[O-])cc3)c(C#N)c2=O)cc1 | 36.6 µM (inactive) | 89.1 µM (inactive) | 32 µM (inactive) | 19.1 µM (inactive) | 30.7 µM (inactive) | 12.8 µM (inactive) | 40.8 µM (inactive) | 26.1 µM (inactive) | 31 µM (inactive) | 32.5 µM (inactive) | 16.7 µM (inactive) | 19.2 µM (inactive) | 51.5 µM (inactive) | 82 µM (inactive) | – | 56.5 µM (inactive) | 23 µM (inactive) |
| CCOC(=O)c1[nH]c(Br)c(-c2ccc(OC)c(OC)c2)c1Br | 0.0423 µM (active) | 0.0187 µM (active) | 4.12 µM (inactive) | 0.117 µM (active) | 0.178 µM (active) | 0.054 µM (active) | 0.00386 µM (active) | 0.00567 µM (active) | 0.766 µM (active) | – | – | 0.0302 µM (active) | 0.0242 µM (active) | – | 0.0163 µM (active) | 0.0259 µM (active) | 0.0336 µM (active) |
